Assay results taken from patent US8969565B2, “Imidazo[1,2-b]pyridazine-based compounds, compositions comprising them, and methods of their use” (Lexicon Pharmaceuticals, Inc., priority 2012, dated 2015).

Biological target: T1, AAK1 (Homo sapiens, UniProt Q2M2I8)
T1 construct: HA; expressed in transfected cells; host or cells: HEK293F
Assay: HEK281 cell-based assay (phospho-mu2 Western blot in transfected HEK293F cells)
Settings: 3 hours incubation, read-out: CBA IC50
Outline: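 After 3 hours at 37° C. with compound (five 3-fold-spaced concentrations, DMEM+0.5% FBS), transiently transfected HEK293F cells expressing full-length human AAK1 and Flag-tagged mu2 were lysed. mu2 phosphorylation was read by anti-phospho-mu2 immunoblot, normalized against total mu2 by anti-Flag blot.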

T1 sequence (Q2M2I8 1-863 isoform Q2M2I8-2): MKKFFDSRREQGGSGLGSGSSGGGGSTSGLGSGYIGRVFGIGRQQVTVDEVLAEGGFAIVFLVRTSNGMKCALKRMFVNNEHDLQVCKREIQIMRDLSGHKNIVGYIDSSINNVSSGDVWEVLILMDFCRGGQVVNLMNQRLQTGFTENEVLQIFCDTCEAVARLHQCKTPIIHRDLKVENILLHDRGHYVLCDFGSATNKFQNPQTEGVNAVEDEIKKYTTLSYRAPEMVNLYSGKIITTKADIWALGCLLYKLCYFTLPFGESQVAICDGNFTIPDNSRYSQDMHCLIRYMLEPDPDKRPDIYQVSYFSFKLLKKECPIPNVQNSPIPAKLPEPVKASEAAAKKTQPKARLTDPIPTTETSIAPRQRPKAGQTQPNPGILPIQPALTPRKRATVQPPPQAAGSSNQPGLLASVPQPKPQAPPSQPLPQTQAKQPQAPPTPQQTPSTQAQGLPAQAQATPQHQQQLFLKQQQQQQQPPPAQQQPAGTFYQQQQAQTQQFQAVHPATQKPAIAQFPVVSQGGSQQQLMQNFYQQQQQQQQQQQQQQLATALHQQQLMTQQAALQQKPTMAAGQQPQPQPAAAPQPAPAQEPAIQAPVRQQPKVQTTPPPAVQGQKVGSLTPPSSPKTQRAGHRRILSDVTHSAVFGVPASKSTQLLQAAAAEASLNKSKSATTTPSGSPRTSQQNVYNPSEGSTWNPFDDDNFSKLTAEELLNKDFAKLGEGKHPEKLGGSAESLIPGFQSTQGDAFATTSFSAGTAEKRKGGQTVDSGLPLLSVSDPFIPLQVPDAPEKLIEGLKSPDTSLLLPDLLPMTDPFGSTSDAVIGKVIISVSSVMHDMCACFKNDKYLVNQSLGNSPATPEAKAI

Compound	IC50 [nM]
NCc1ccc(-c2cnc3ccc(NC4CCCCC4)nn23)cc1 [[3-(4-Aminomethyl-phenyl)-imidazo[1,2-b]pyridazin-6-yl]-cyclohexylamine]	≤ 1000
CC(C)N(CCNc1ccc2ncc(-c3ccc(C(N)=O)cc3)n2n1)C(=O)OC1CCCC1 [cyclopentyl (2-((3-(4-carbamoylphenyl)imidazo[1,2-b]pyridazin-6-yl)amino)ethyl)(isopropyl)carbamate]	≤ 100
CCOC(=O)CCCNc1ccc2ncc(-c3ccc(CN)cc3)n2n1 [ethyl 4-((3-(4-(aminomethyl)phenyl)imidazo[1,2-b]pyridazin-6-yl)amino)butanoate]	≤ 100
CCOC(=O)N(C)CCNc1ccc2ncc(-c3ccncc3OC)n2n1 [ethyl (2-((3-(3-methoxypyridin-4-yl)imidazo[1,2-b]pyridazin-6-yl)amino)ethyl)(methyl)carbamate]	≤ 10
CCOC(=O)N(C)CCNc1ccc2ncc(-c3ccc(C(=O)NCCC(C)C)cc3)n2n1 [ethyl (2-((3-(4-(isopentylcarbamoyl)phenyl)imidazo[1,2-b]pyridazin-6-yl)amino)ethyl)(methyl)carbamate]	≤ 100
CCOC(=O)N(C)CCNc1ccc2ncc(-c3ccc(C(=O)NC(C)(C)C)cc3)n2n1 [ethyl (2-((3-(4-(tert-butylcarbamoyl)phenyl)imidazo[1,2-b]pyridazin-6-yl)amino)ethyl)(methyl)carbamate]	≤ 100
CCOC(=O)N(CCNc1ccc2ncc(-c3ccc(C(N)=O)cc3)n2n1)C(C)C [ethyl (2-((3-(4-carbamoylphenyl)imidazo[1,2-b]pyridazin-6-yl)amino)ethyl)(isopropyl)carbamate]	≤ 100
CCOC(=O)N(C)CCNc1ccc2ncc(-c3ccc(C(N)=O)cc3)n2n1 [ethyl (2-((3-(4-carbamoylphenyl)imidazo[1,2-b]pyridazin-6-yl)amino)ethyl)(methyl)carbamate]	≤ 100
CCOC(=O)N(C)CCCNc1ccc2ncc(-c3ccc(C(C)=O)s3)n2n1 [ethyl (3-((3-(5-acetylthiophen-2-yl)imidazo[1,2-b]pyridazin-6-yl)amino)propyl)(methyl)carbamate]	≤ 1000
CCOC(=O)N(CCNc1ccc2ncc(-c3ccncc3OC)n2n1)C(C)C [ethyl isopropyl(2-((3-(3-methoxypyridin-4-yl)imidazo[1,2-b]pyridazin-6-yl)amino)ethyl)carbamate]	≤ 10
CCOC(=O)N(C)CCNc1ccc2ncc(-c3ccc(C(=O)NC)cc3)n2n1 [ethyl methyl(2-((3-(4-(methylcarbamoyl)phenyl)imidazo[1,2-b]pyridazin-6-yl)amino)ethyl)carbamate]	≤ 100
CCOC(=O)N(C)CCNc1ccc2ncc(-c3ccc(C(=O)NC)s3)n2n1 [ethyl methyl(2-((3-(5-(methylcarbamoyl)thiophen-2-yl)imidazo[1,2-b]pyridazin-6-yl)amino)ethyl)carbamate]	≤ 100
CC(C)COC(=O)N(C)CCNc1ccc2ncc(-c3ccc(C(N)=O)cc3)n2n1 [isobutyl (2-((3-(4-carbamoylphenyl)imidazo[1,2-b]pyridazin-6-yl)amino)ethyl)(methyl)carbamate]	≤ 100
COc1cnccc1-c1cnc2ccc(NCCN(C(=O)OCC(C)C)C(C)C)nn12 [isobutyl isopropyl(2-((3-(3-methoxypyridin-4-yl)imidazo[1,2-b]pyridazin-6-yl)amino)ethyl)carbamate]	≤ 100
CNC(=O)c1ccc(-c2cnc3ccc(NCCN(C)C(=O)OCC(C)C)nn23)cc1 [isobutyl methyl(2-((3-(4-(methylcarbamoyl)phenyl)imidazo[1,2-b]pyridazin-6-yl)amino)ethyl)carbamate]	≤ 100
CC(C)OC(=O)N1CCN(c2ccc3ncc(-c4cccc5c4OCC5)n3n2)CC1 [isopropyl 4-(3-(2,3-dihydrobenzofuran-7-yl)imidazo[1,2-b]pyridazin-6-yl)piperazine-1-carboxylate]	≤ 100
COc1cnccc1-c1cnc2ccc(N3CCN(C(=O)OC(C)C)CC3)nn12 [isopropyl 4-(3-(3-methoxypyridin-4-yl)imidazo[1,2-b]pyridazin-6-yl)piperazine-1-carboxylate]	≤ 10
CC(C)OC(=O)N1CCN(c2ccc3ncc(-c4cccc5c4OCO5)n3n2)CC1 [isopropyl 4-(3-(benzo[d][1,3]dioxo1-4-yl)imidazo[1,2-b]pyridazin-6-yl)piperazine-1-carboxylate]	≤ 100
CNC(=O)c1cnc2ccc(N3CCN(C(=O)OC(C)C)CC3)nn12 [isopropyl 4-(3-(methylcarbamoyl)imidazo[1,2-b]pyridazin-6-yl)piperazine-1-carboxylate]	≤ 100
CC(C)OC(=O)N1CCN(c2ccc3ncc(-c4ccncc4)n3n2)CC1 [isopropyl 4-(3-(pyridin-4-yl)imidazo[1,2-b]pyridazin-6-yl)piperazine-1-carboxylate]	≤ 100
CC(C)OC(=O)N(C)CCNc1ccc2ncc(-c3cn[nH]c3)n2n1 [isopropyl (2-((3-(1H-pyrazol-4-yl)imidazo[1,2-b]pyridazin-6-yl)amino)ethyl)(methyl)carbamate]	≤ 100

Compound	IC50 [nM]
Cc1nc(C)c(-c2cnc3ccc(NCCN(C)C(=O)OC(C)C)nn23)s1 [isopropyl (2-((3-(2,4-dimethylthiazol-5-yl)imidazo[1,2-b]pyridazin-6-yl)amino)ethyl)(methyl)carbamate]	≤ 100
CC(C)OC(=O)N(C)CCNc1ccc2ncc(-c3ccnc(N)c3)n2n1 [isopropyl (2-((3-(2-aminopyridin-4-yl)imidazo[1,2-b]pyridazin-6-yl)amino)ethyl)(methyl)carbamate]	≤ 100
CC(C)OC(=O)N(C)CCNc1ccc2ncc(-c3ccccc3F)n2n1 [isopropyl (2-((3-(2-fluorophenyl)imidazo[1,2-b]pyridazin-6-yl)amino)ethyl)(methyl)carbamate]	≤ 100
COc1ccccc1-c1cnc2ccc(NCCN(C)C(=O)OC(C)C)nn12 [isopropyl (2-((3-(2-methoxyphenyl)imidazo[1,2-b]pyridazin-6-yl)amino)ethyl)(methyl)carbamate]	≤ 100
COc1cnccc1-c1cnc2ccc(NCCN(C)C(=O)OC(C)C)nn12 [isopropyl (2-((3-(3-methoxypyridin-4-yl)imidazo[1,2-b]pyridazin-6-yl)amino)ethyl)(methyl)carbamate]	≤ 100
COc1cnccc1-c1cnc2ccc(NCCNC(=O)OC(C)C)nn12 [isopropyl (2-((3-(3-methoxypyridin-4-yl)imidazo[1,2-b]pyridazin-6-yl)amino)ethyl)carbamate]	≤ 100
COc1cc(F)c(F)cc1-c1cnc2ccc(NCCN(C(=O)OC(C)C)C(C)C)nn12 [isopropyl (2-((3-(4,5-difluoro-2-methoxyphenyl)imidazo[1,2-b]pyridazin-6-yl)amino)ethyl)(isopropyl)carbamate]	≤ 100
CC(C)OC(=O)N(CCNc1ccc2ncc(-c3ccc(C(N)=O)cc3)n2n1)C(C)C [isopropyl (2-((3-(4-carbamoylphenyl)imidazo[1,2-b]pyridazin-6-yl)amino)ethyl)(isopropyl)carbamate]	≤ 100
CC(C)OC(=O)N(C)CCNc1ccc2ncc(-c3ccc(C(N)=O)cc3)n2n1 [isopropyl (2-((3-(4-carbamoylphenyl)imidazo[1,2-b]pyridazin-6-yl)amino)ethyl)(methyl)carbamate]	≤ 10
COc1cc(F)ccc1-c1cnc2ccc(NCCN(C)C(=O)OC(C)C)nn12 [isopropyl (2-((3-(4-fluoro-2-methoxyphenyl)imidazo[1,2-b]pyridazin-6-yl)amino)ethyl)(methyl)carbamate]	≤ 100
COc1ccc(F)cc1-c1cnc2ccc(NCCN(C(=O)OC(C)C)C(C)C)nn12 [isopropyl (2-((3-(5-fluoro-2-methoxyphenyl)imidazo[1,2-b]pyridazin-6-yl)amino)ethyl)(isopropyl)carbamate]	≤ 100
COc1ccc(F)cc1-c1cnc2ccc(NCCN(C)C(=O)OC(C)C)nn12 [isopropyl (2-((3-(5-fluoro-2-methoxyphenyl)imidazo[1,2-b]pyridazin-6-yl)amino)ethyl)(methyl)carbamate]	≤ 10
CC(C)OC(=O)N(C)CCCNc1ccc2ncc(-c3ccc(CN)cc3)n2n1 [isopropyl (3-((3-(4-(aminomethyl)phenyl)imidazo[1,2-b]pyridazin-6-yl)amino)propyl)(methyl)carbamate]	≤ 100
CC(=O)c1ccc(-c2cnc3ccc(NCCCN(C)C(=O)OC(C)C)nn23)s1 [isopropyl (3-((3-(5-acetylthiophen-2-yl)imidazo[1,2-b]pyridazin-6-yl)amino)propyl)(methyl)carbamate]	≤ 100
CCN(CCNc1ccc2ncc(-c3ccncc3OC)n2n1)C(=O)OC(C)C [isopropyl ethyl(2-((3-(3-methoxypyridin-4-yl)imidazo[1,2-b]pyridazin-6-yl)amino)ethyl)carbamate]	≤ 100
CCN(CCNc1ccc2ncc(-c3ccc(C(=O)NC)cc3)n2n1)C(=O)OC(C)C [isopropyl ethyl(2-((3-(4-(methylcarbamoyl)phenyl)imidazo[1,2-b]pyridazin-6-yl)amino)ethyl)carbamate]	≤ 100
COc1ccccc1-c1cnc2ccc(NCCN(C(=O)OC(C)C)C(C)C)nn12 [isopropyl isopropyl(2-((3-(2-methoxyphenyl)imidazo[1,2-b]pyridazin-6-yl)amino)ethyl)carbamate]	≤ 100
COc1cnccc1-c1cnc2ccc(NCCN(C(=O)OC(C)C)C(C)C)nn12 [isopropyl isopropyl(2-((3-(3-methoxypyridin-4-yl)imidazo[1,2-b]pyridazin-6-yl)amino)ethyl)carbamate]	≤ 10
CNC(=O)c1ccc(-c2cnc3ccc(NCCN(C(=O)OC(C)C)C(C)C)nn23)cc1 [isopropyl isopropyl(2-((3-(4-(methylcarbamoyl)phenyl)imidazo[1,2-b]pyridazin-6-yl)amino)ethyl)carbamate]	≤ 100
CC(C)OC(=O)N(CCNc1ccc2ncc(-c3ccncc3)n2n1)C(C)C [isopropyl isopropyl(2-((3-(pyridin-4-yl)imidazo[1,2-b]pyridazin-6-yl)amino)ethyl)carbamate]	≤ 100
